Assays:
Type in all cases: cell-based
[1] = target: T1, alpha 2A adrenergic receptor (Homo sapiens, UniProt P08913); experiment: RSAT (Receptor Selection and Amplification Technology) assay, alpha 2A; conditions: for EC50: NIH-3T3 cells cotransfected with receptor and Gq/i5; for efficacy or intrinsic activity (value in parentheses) Alpha 2A: ratio of maximal effect to that of standard full agonist brimonidine
T1 construct: expressed in transfected cells; host or cells: NIH-3T3 cells, transient cotransfection by calcium phosphate
T1 sequence (P08913 1-465): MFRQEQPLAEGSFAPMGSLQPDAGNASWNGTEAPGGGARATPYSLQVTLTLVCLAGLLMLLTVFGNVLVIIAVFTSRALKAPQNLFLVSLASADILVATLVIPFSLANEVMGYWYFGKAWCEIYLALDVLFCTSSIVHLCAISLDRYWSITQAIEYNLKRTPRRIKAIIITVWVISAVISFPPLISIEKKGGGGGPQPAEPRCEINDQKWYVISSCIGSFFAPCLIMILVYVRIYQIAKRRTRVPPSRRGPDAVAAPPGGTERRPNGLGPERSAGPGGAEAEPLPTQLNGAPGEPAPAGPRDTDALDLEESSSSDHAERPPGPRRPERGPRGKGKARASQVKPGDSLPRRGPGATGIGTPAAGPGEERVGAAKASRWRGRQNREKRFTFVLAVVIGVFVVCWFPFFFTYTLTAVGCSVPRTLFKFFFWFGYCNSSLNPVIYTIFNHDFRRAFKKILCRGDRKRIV
Description: (§1) Activity was measured using the RSAT (Receptor Selection and Amplification Technology) assay, developed by Receptor Technologies, Inc. of Winooski, Vt. (now Acadia Pharmaceuticals of San Diego, Calif.), adapted for use with recombinant alpha2 adrenergic receptors in collaboration with Allergan. The assay measures receptor-mediated loss of contact inhibition that results in selective proliferation of receptor-containing cells in a mixed population of confluent cells. The increase in cell number is assessed with an appropriate transfected marker gene such as β-galactosidase, the activity of which can be easily measured in a 96-well format. Receptors that activate the G protein, Gq, elicit this response. Alpha2 receptors, which normally couple to Gi, activate the RSAT response when coexpressed with a hybrid Gq protein that has a Gi receptor recognition domain, called Gq/i5.
(§2) The assay is conducted as follows. NIH-3T3 cells are plated at a density of 2×10^6 cells in 15 cm dishes and maintained in Dulbecco's modified Eagle's medium supplemented with 10% calf serum. One day later, cells are cotransfected by calcium phosphate precipitation with mammalian expression plasmids encoding p-SV-β-galactosidase (5-10 μg), receptor (1-2 μg) and G protein (1-2 μg). 40 μg salmon sperm DNA may also be included in the transfection mixture to increase transfection efficiency. Fresh media is added on the following day and 1-2 days later, cells are harvested and frozen in 50 assay aliquots. Transfectant cells are thawed and 100 μl added to 100 μl aliquots of various concentrations of drugs in triplicate in 96-well dishes. Incubations continue 72-96 hr at 37°. After washing with phosphate-buffered saline, β-galactosidase enzyme activity is determined by adding 200 μl of the chromogenic substrate (consisting of 3.5 mM o-nitrophenyl-β-D-galactopyranoside and 0.5% of the non-ionic surfactant nonidet P-40 in phosphate buffered saline), incubating overnight at 30° and measuring optical density at 420 nm. The absorbency is a measure of enzyme activity, which depends on cell number and reflects a receptor-mediated cell proliferation. The EC50 and maximal effect of each drug at each alpha2 receptor is determined. The efficacy or intrinsic activity is calculated as a ratio of the maximal effect of the drug to the maximal effect of a standard full agonist for each receptor subtype. Brimonidine, also called UK14304, is used as the standard agonist for the alpha2A, alpha2B and alpha2C receptors. The RSAT assay is also discussed in Messier et al. (1995) High throughput assays of cloned adrenergic, muscarinic, neurokinin and neurotrophin receptors in living mammalian cells, Pharmacol. Toxicol. 76:308-11; see also Conklin et al. (1993) Substitution of three amino acids switches receptor specificity of Gqα to that of Giα, Nature 363:274-6; Both of these papers are incorporated by reference herein.

[2] = target: T2, alpha 2B adrenergic receptor (Homo sapiens, UniProt P18089); experiment: RSAT (Receptor Selection and Amplification Technology) assay, alpha 2B; conditions: for EC50: NIH-3T3 cells cotransfected with receptor and Gq/i5; for efficacy or intrinsic activity (value in parentheses) Alpha 2B: ratio of maximal effect to that of standard full agonist brimonidine
T2 construct: expressed in transfected cells; host or cells: NIH-3T3 cells, transient cotransfection by calcium phosphate
T2 sequence (P18089 1-450): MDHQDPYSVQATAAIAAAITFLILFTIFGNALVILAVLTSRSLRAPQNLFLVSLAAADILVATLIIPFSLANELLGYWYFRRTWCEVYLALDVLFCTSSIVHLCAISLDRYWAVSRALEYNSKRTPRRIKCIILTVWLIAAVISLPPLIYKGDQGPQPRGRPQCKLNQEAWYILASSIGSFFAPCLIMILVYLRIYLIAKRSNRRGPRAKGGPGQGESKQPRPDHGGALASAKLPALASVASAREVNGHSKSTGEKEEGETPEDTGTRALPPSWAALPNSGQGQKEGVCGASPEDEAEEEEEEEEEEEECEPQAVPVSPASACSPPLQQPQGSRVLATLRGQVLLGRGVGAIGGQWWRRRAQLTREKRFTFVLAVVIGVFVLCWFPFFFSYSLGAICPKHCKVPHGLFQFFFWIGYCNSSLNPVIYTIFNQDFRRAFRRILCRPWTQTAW
Description: as §1, §2

[3] = target: T3, alpha 2C adrenergic receptor (Homo sapiens, UniProt P18825); experiment: RSAT (Receptor Selection and Amplification Technology) assay, alpha 2C; conditions: for EC50: NIH-3T3 cells cotransfected with receptor and Gq/i5; for efficacy or intrinsic activity (value in parentheses) Alpha 2C: ratio of maximal effect to that of standard full agonist brimonidine
T3 construct: expressed in transfected cells; host or cells: NIH-3T3 cells, transient cotransfection by calcium phosphate
T3 sequence (P18825 1-462): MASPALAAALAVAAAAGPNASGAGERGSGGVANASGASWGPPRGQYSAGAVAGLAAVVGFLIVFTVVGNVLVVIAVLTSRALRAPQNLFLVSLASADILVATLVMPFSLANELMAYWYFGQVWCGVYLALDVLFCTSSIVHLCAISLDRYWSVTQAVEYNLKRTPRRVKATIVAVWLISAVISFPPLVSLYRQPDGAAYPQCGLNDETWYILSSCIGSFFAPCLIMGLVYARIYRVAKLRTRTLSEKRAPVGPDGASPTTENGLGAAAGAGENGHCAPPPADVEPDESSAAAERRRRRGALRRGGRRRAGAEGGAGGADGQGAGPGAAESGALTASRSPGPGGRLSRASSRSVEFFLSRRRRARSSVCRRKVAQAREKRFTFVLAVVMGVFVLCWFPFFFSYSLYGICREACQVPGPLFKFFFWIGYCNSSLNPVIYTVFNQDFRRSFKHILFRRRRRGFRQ
Description: as §1, §2

Row | SMILES | EC50 [1] | efficacy or intrinsic activity (value in parentheses) Alpha 2A [1] | EC50 [2] | efficacy or intrinsic activity (value in parentheses) Alpha 2B [2] | EC50 [3] | efficacy or intrinsic activity (value in parentheses) Alpha 2C [3]
1 | COc1ccc(Cl)cc1CNC(=S)NCCO | 380 nM | 0.33 | 19 nM | 1.09 | 175 nM | 0.53
2 | COc1ccc(F)cc1CNC(=S)NCCO | 930 nM | 0.39 | 9 nM | 0.96 | 45 nM | 0.78
3 | OCCNC(=S)NCc1ccccc1I | ≥ 210000 nM |  | 21 nM | 1.26 | 226 nM | 0.7
4 | OCCNC(=S)NCc1cccc(OC(F)(F)F)c1 | ≥ 210000 nM |  | 2390 nM | 0.55 | ≥ 210000 nM | 
5 | Cc1ccccc1CNC(=S)NCCO | ≥ 210000 nM |  | 174 nM | 0.7 | ≥ 210000 nM | 
6 | Cc1cc(Br)c(F)c(CNC(=S)NCCO)c1 | > 2000 nM |  | 22 nM | 0.73 | 819 nM | 0.56
7 | Cc1cc(Cl)cc(CNC(=S)NCCO)c1F | ≥ 210000 nM |  | 37.5 nM | 1.02 | 181 nM | 0.62
8 | OCCNC(=S)NCc1cccc(Br)c1F | 136 nM | 0.52 | 5.5 nM | 1.03 | 41 nM | 0.88
9 | OCCNC(=S)NCc1cc(Br)cc(Cl)c1F | ≥ 210000 nM |  | 117 nM | 1.13 | > 2000 nM | 
10 | Cc1cc(Cl)c(F)c(CNC(=S)NCCO)c1 | 546 nM | 0.31 | 62 nM | 1.06 | 278 nM | 0.66
11 | OCCNC(=S)NCc1cccc(Cl)c1F [drawing 20] | ≥ 210000 nM |  | 16 nM | 0.82 | 457 nM | 0.37
12 | OCCNC(=S)NCc1cccc(Cl)c1 | ≥ 210000 nM |  | 16 nM | 0.7 | ≥ 210000 nM | 
13 | Cc1ccc(Br)c(CNC(=S)NCCO)c1F | ≥ 210000 nM |  | 115 nM | 0.8 | > 3000 nM | 
14 | OCCNC(=S)NCc1ccc(F)cc1C(F)(F)F | ≥ 210000 nM |  | 478 nM | 0.72 | > 2000 nM | 
15 | OCCNC(=S)NCc1c(F)cccc1F | ≥ 210000 nM |  | 462 nM | 0.45 | 5060 nM | 0.4

The remaining lines, values ahead:

Row | EC50 [1] | efficacy or intrinsic activity (value in parentheses) Alpha 2A [1] | EC50 [2] | efficacy or intrinsic activity (value in parentheses) Alpha 2B [2] | EC50 [3] | efficacy or intrinsic activity (value in parentheses) Alpha 2C [3] | SMILES
16 | ≥ 210000 nM |  | 898 nM | 0.40 | ≥ 210000 nM |  | COc1cccc(CNC(=S)NCCO)c1
17 | 62 nM | 0.85 | 2 nM | 1.35 | 23 nM | 0.91 | OCCNC(=S)NCc1cccc(I)c1F
18 | ≥ 210000 nM |  | 137 nM | 0.68 | 617 nM | 0.37 | OCCNC(=S)NCc1c(F)cccc1C(F)(F)F
19 | ≥ 210000 nM |  | 36 nM | 0.97 | 459 nM | 0.58 | OCCNC(=S)NCc1cc(Br)ccc1F
20 | ≥ 210000 nM |  | 49 nM | 0.76 | 322 nM | 0.68 | OCCNC(=S)NCc1cc(I)ccc1F
21 | ≥ 210000 nM |  | 44 nM | 0.94 | 1850 nM | 0.54 | OCCNC(=S)NCc1c(F)ccc(F)c1Cl
22 | ≥ 210000 nM |  | 70 nM | 0.49 | ≥ 210000 nM |  | OCCNC(=S)NCc1c(Br)ccc(I)c1F
23 | ≥ 210000 nM |  | 48 nM | 0.60 | ≥ 210000 nM |  | OCCNC(=S)NCc1c(Br)ccc(F)c1F
24 | ≥ 210000 nM |  | 523 nM | 0.8 | 853 nM | 0.7 | OCCNC(=S)NCc1cc(C(F)(F)F)ccc1F
25 | ≥ 210000 nM |  | 281 nM | 0.58 | ≥ 210000 nM |  | OCCNC(=S)NCc1c(F)cc(F)c(Cl)c1F
26 | ≥ 210000 nM |  | 17 nM | 1.13 | 87 nM | 0.6 | OCCNC(=S)NCc1cc(Cl)ccc1F
27 | ≥ 210000 nM |  | 138 nM | 1.01 | 786 nM | 0.66 | OCCNC(=S)NCc1ccc(F)c(Br)c1F
28 | ≥ 210000 nM |  | 99 nM | 0.6 | ≥ 210000 nM |  | OCCNC(=S)NCc1ccc(F)c(Cl)c1
29 | ≥ 210000 nM |  | 694 nM | 0.93 | 783 nM | 0.4 | OCCNC(=S)NCc1ccccc1C(F)(F)F

Source: US6545182B2, “Methods and compositions for modulating alpha adrenergic receptor activity” (Allergan Sales, Inc., priority 2000, dated 2003)
